In ChEMBL document CHEMBL1139858, “Design, synthesis, and X-ray structure of potent memapsin 2 (beta-secretase) inhibitors with isophthalamide derivatives as the P2-P3-ligands” (J Med Chem, 2007):

How the values were obtained:
Beta-secretase 1 [1] = target: T1, Beta-secretase 1 (Homo sapiens, UniProt P56817)
Description: Inhibition of memapsin 2 expressed in CHO cells

Beta-secretase 1 [2] = target: T1, Beta-secretase 1; remark: listed apart in the source
Description: Inhibition of recombinant memapsin 2

Cathepsin D = Cathepsin D (Homo sapiens, UniProt P07339)
Chain of Cathepsin D (P07339 65-162 limits assumed): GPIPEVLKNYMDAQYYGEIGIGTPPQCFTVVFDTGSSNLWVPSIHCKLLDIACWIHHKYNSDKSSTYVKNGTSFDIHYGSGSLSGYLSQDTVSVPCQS
Chain of Cathepsin D (P07339 169-412 limits assumed): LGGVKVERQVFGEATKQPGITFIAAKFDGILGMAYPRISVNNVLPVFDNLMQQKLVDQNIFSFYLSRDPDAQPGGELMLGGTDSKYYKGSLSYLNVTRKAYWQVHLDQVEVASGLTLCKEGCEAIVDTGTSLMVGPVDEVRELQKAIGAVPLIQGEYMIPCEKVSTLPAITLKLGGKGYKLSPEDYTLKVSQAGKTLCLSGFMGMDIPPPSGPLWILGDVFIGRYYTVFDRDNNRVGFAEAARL
Description: Inhibition of human cathepsin D

T1 sequence (P56817 whole entry): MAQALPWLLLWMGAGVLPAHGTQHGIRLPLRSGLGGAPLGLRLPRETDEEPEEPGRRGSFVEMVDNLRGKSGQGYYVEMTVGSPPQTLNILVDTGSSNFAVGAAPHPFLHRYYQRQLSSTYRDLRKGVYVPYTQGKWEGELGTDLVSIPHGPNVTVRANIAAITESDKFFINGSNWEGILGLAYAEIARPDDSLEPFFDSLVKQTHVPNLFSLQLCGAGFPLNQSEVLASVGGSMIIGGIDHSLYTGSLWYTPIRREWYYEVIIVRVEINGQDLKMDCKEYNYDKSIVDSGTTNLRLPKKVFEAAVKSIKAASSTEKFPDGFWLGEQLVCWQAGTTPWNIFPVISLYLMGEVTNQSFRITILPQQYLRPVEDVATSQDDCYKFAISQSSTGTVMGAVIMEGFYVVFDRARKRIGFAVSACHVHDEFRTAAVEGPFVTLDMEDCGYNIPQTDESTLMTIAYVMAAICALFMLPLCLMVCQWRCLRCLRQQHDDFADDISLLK

| SMILES | IC50 (Beta-secretase 1 [1]) | Ki (Beta-secretase 1 [2]) | Ki (Cathepsin D) |
| --- | --- | --- | --- |
| CCCNC(=O)c1cc(C(=O)N[C@@H](CC(C)C)[C@@H](O)C[C@@H](C)C(=O)N[C@H](C(=O)NC(C)C)C(C)C)cc(N(C)S(C)(=O)=O)c1 | 3600 nM | 52.5 nM | 483 nM |
| CCCNC(=O)c1cccc(C(=O)N[C@@H](CC(C)C)[C@@H](O)C[C@@H](C)C(=O)N[C@H](C(=O)NC(C)C)C(C)C)c1 |  | 788 nM |  |
| Cc1nc(CNC(=O)c2cc(C(=O)N[C@@H](CC(C)C)[C@@H](O)C[C@@H](C)C(=O)N[C@H](C(=O)NC(C)C)C(C)C)cc(N(C)S(C)(=O)=O)c2)c(C)o1 | 1800 nM | 1.8 nM | 245 nM |
| CC(C)C[C@H](NC(=O)c1cc(C(=O)N[C@H](CO)c2ccccc2)cc(N(C)S(C)(=O)=O)c1)[C@@H](O)C[C@@H](C)C(=O)N[C@H](C(=O)NC(C)C)C(C)C | 190000 nM | 438 nM |  |
| Cc1nc(C(C)NC(=O)c2cc(C(=O)N[C@@H](CC(C)C)[C@@H](O)C[C@@H](C)C(=O)N[C@H](C(=O)NC(C)C)C(C)C)cc(N(C)S(C)(=O)=O)c2)c(C)o1 (some centres not stated) | 10300 nM | 27 nM | 490 nM |
